Test results: patent publication US20030216571A1, “Tricyclic compounds” (priority 1999, published 2003)

Legend:
[1] = target: T1, Leukotriene D4 receptor (Cavia porcellus, UniProt Q2NNR5); assay: Leukotriene D4 receptor binding test; conditions: binding inhibition constant (Ki) vs [3H] LTD4 0.2 nM; lung cell membrane fraction from guinea pigs; 25° C. for 30 minutes; read-out: pKi value (converted)
T1 construct: As a receptor sample, a lung cell membrane fraction from guinea pigs was used; from tissue; host or cells: lung membrane fraction of Hartley male guinea pigs
T1 sequence (Q2NNR5 1-340): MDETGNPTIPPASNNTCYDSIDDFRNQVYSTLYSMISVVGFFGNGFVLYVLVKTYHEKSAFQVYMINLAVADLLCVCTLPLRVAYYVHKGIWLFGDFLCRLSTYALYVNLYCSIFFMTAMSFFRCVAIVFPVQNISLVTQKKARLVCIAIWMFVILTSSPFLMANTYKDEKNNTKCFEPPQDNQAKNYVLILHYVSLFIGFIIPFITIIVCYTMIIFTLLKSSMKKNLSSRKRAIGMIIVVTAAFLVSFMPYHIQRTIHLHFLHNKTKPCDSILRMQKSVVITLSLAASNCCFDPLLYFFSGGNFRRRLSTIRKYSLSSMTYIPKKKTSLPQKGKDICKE
Description: Leukotriene D4 Receptor Binding Test
As a receptor sample, a lung cell membrane fraction from guinea pigs was used. Preparation of the membrane fraction was carried out according to the method of Ahn et al. (Eur. J. Pharmacol., 127, 153-155 (1986)). Lungs of Hartley male guinea pigs (400 to 500 g body weight, Nippon SLC Co.) were extracted, and perfused with a physiological saline, and then, adding 10 mM of PIPES, 10 mM of MgCl2 and 10 mM of CaCl2 buffer (pH 7.5) to the lung tissue and the mixture was homogenized. This homogenate was centrifuged at 70,000 xg for 10 minutes to obtain a membrane fraction.
Leukotriene D4 (LTD4) recepter binding test was carried out according to the method of Aharony, et al. (J. Pharmacol. Expl.Ther., 243, 921-926 (1987)). To 0.42 mg of the receptor sample were added 10 mM of PIPES, 10 mM of MgCl2 and 10 mM of CaCl2 buffer (pH 7.5) to make the total amount of 480 μl, and 10 μl of [^3H] LTD4 (NEN Life Science Products Co.) and 10 μl of a Test compound in dimethylsulfoxide were added to the mixture, and the resulting mixture was incubated at 25° C. for 30 minutes. The mixtures thus incubated were filtered through a glass fiber filter (Whatman Co., GF/C) using cell harvester (Brandel Co., M-30R). The filter were washed with 10 mM of Tris. and 100 mM of NaCl buffer (pH 7.5), and 5 ml of a liquid scintillator (NACALAI TESQUE INC., clearsol I), and radioactivity was measured by a liquid scintillation analyzer (Packard Co., 2000CA). When a dissociation constant (Kd) of LTD4 was to be obtained, [^3H] LTD4 with 0.03 to 0.5 nM was used, and 1 μM of non-radioactive LTD4 was added. When a binding inhibition constant (Ki) of the Test compound is to be meaured, [^3H] LTD4 with 0.2 nM was used. Kd and Ki are calculated according to the method of Bennett et al. (Neurotransmitter Receptor Binding, 2nd ed., edited by H. I. Yamamura et al., pp. 61-89, Raven Press (1985)).

[2] = tested on: Leukotriene D4 induced respiratory constriction; assay: Leukotriene D4 induced respiratory constriction test; type: in vivo; conditions: p.o. 1 hr before i.v. LTD4; anesthetized Hartley male guinea pigs; respiratory inner pressure
Description: Leukotriene D4 Induced Respiratory Constriction Test
Respiratory constriction was measured by modifying the method of Konzett and Rossler (Arch. Exp. Pathol. Pharmakol., 195, pp. 71-74 (1940)). Hartley male guinea pigs (400 to 500 g body weight, Nippon SLC Co.) were anesthetized with pentobarbital (50 mg/kg, s.c.), and a cannula was inserted into the trachea to carry out artificial ventilation with an artificial ventilator (manufactured by Harvard Co., Model 683). An inner pressure of the respiratory tract was measured by a differential pressure transducer (Nihon Koden, TP-603T) connected to the respiratory cannula and it is used as an index of respiratory constriction.
LTD4 (0.03, 0.06, 0.13, 0.25, 0.5, 1 and 2 μg/kg, Sigma Co.) was intravenously administered from a cannula inserted into the right jugular vein from a low dose with an interval of 5 minutes to cause a respiratory constriction reaction and an increased amount of a respiratory inner pressure was measured. Test compound was suspended in 0.5% sodium carboxymethyl cellulose aqueous solution, and orally administered 1 hour before administration of LTD4. Animals were fasted for 24 hours before administration of the Test compound.
A2=(Dose of Compound administered)/{(ED50 of group to which Compound was added)/(ED50 of control group)−1}

| SMILES | melting point | Ki [1] | A2 (dose of Test compound required for shifting two-times the LTD4 dose-reaction curve of control group to higher dose side) [2] |
| --- | --- | --- | --- |
| N#Cc1cccc2c1COc1ccc(/C=C/c3ccc4cc(F)c(F)cc4n3)cc1C2SCCC(=O)O (stereo not drawn) | 261 to 264 °C (dec.) |  |  |
| O=C(O)CC1(CSC2c3cc(/C=C/c4ccc5cc(F)c(Cl)cc5n4)ccc3OCc3c(F)cccc32)CC1 (stereo not drawn) | 237 to 239 °C |  |  |
| O=C(O)CCSC1c2ccccc2COc2ccc(/C=C/c3ccc4c(n3)CCCC4)cc21 (stereo not drawn) | 150 to 153 °C |  |  |
| O=C([O-])CC1(CSC2c3ccccc3COc3ccc(/C=C/c4ccc5c(n4)CCCC5)cc32)CC1.[Na+] (stereo not drawn) | 142 to 145 °C |  |  |
| O=C([O-])CCSC1c2ccccc2COc2ccc(/C=C/c3cc(Cl)c4ccccc4n3)cc21.[Na+] (stereo not drawn) | 140 to 142 °C |  |  |
| O=C([O-])CC1(CSC2c3ccccc3COc3ccc(/C=C/c4ccc5c(F)cccc5n4)cc32)CC1.[Na+] (stereo not drawn) | 142 to 144 °C |  |  |
| O=C([O-])CCSC1c2ccccc2COc2ccc(/C=C/c3nc4cc(F)ccc4s3)cc21.[Na+] (stereo not drawn) | > 300 °C |  |  |
| O=C([O-])CC1(CSC2c3ccccc3COc3ccc(/C=C/c4nc5cc(F)ccc5s4)cc32)CC1.[Na+] (stereo not drawn) | 155 to 157 °C |  |  |
| O=C([O-])CCSC1c2ccccc2COc2ccc(/C=C/c3nc4cc(F)ccc4o3)cc21.[Na+] (stereo not drawn) | 247 to 250 °C |  |  |
| Cc1ccc(/C=C/c2ccc3c(c2)C(SCCC(=O)[O-])c2ccccc2CO3)nc1C(C)C.[Na+] (stereo not drawn) | 137 to 139 °C |  |  |
| COC(=O)c1ccc2c(c1)COc1ccc(/C=C/c3ccc4c(n3)CCCC4)cc1C2SCCC(=O)O (stereo not drawn) | 121 to 123 °C |  |  |
| O=C(O)CCSC1c2ccccc2COc2ccc(/C=C/c3ccc4cc(F)c(F)cc4n3)cc21 (stereo not drawn) | 213 to 216 °C |  |  |
| O=C(O)CCSC1c2ccccc2COc2ccc(OCc3ccc4cc(F)c(Cl)cc4n3)cc21 (stereo not drawn) [Compound A, 11-(2-carboxyethyl)thio-2-(7-chloro-6-fluoro-quinolin-2-yl)methoxy-6,11-dihydrodibenz[b,e]oxepine, reference compound] |  | 0.316 nM | 16 µg/kg |
| O=C([O-])CCSC1c2ccccc2COc2ccc(/C=C/c3ccc4cc(F)c(Cl)cc4n3)cc21.[Na+] (stereo not drawn) [Example 2 (b), Sodium 3-{[2-[(E)-2-(7-chloro-6-fluoro-2-quinolinyl)ethenyl]-6,11-dihydrodibenz[b,e]oxepin-11-yl]thio}propionate] |  | 0.316 nM | 1.7 µg/kg |
| O=C([O-])CCSC1c2cc(/C=C/c3ccc4cc(F)c(F)cc4n3)ccc2OCc2c1cccc2C(F)(F)F.[Na+] (stereo not drawn) [Example 14, Sodium 3-{[2-[(E)-2-(6,7-difluoro-2-quinolinyl)ethenyl]-7-trifluoromethyl-6,11-dihydrodibenz[b,e]oxepin-11-yl]thio}propionate] |  | 0.631 nM | 4.4 µg/kg |
| C[C@@H](CSC1c2ccccc2COc2ccc(/C=C/c3ccc4c(n3)CCCC4)cc21)C(=O)[O-].[Na+] (stereo partly drawn) [Example 26, Sodium 3-{[2-[(E)-2-(5,6,7,8-tetrahydro-2-quinolinyl)ethenyl]-6,11-dihydrodibenz[b,e]oxepin-11-yl]thio}-2-(R)-methylpropionate] | 168 to 173 °C | 0.316 nM |  |
| CC(C)(CC(=O)[O-])SC1c2ccccc2COc2ccc(/C=C/c3ccc4c(n3)CCCC4)cc21.[Na+] (stereo not drawn) [Example 27, Sodium 3-{[2-[(E)-2-(5,6,7,8-tetrahydro-2-quinolinyl)ethenyl]-6,11-dihydrodibenz[b,e]oxepin-11-yl]thio}-3-methylbutanoate] | 168 to 175 °C |  |  |

The next lines start with results.

| melting point | SMILES | Ki [1] | A2 (dose of Test compound required for shifting two-times the LTD4 dose-reaction curve of control group to higher dose side) [2] |
| --- | --- | --- | --- |
| 246 to 254 °C | O=S(=O)([O-])CCSC1c2ccccc2COc2ccc(/C=C/c3ccc4cc(F)c(F)cc4n3)cc21.[Na+] (stereo not drawn) |  |  |
| 238 to 241 °C | O=C(O)CCSC1c2cc(/C=C/c3ccc4cc(F)c(Cl)cc4n3)ccc2OCc2c(F)cccc21 (stereo not drawn) |  |  |
| 160 to 163 °C | O=C([O-])CCSC1c2ccccc2COc2ccc(/C=C/c3ccc4ccc(F)cc4n3)cc21.[Na+] (stereo not drawn) |  |  |
| 149 to 152 °C | O=C([O-])CC1(CSC2c3ccccc3COc3ccc(/C=C/c4ccc5ccc(F)cc5n4)cc32)CC1.[Na+] (stereo not drawn) |  |  |
| 195 to 198 °C | O=C(O)CCSC1c2ccccc2COc2ccc(/C=C/c3ccc4ccc(Cl)cc4n3)cc21 (stereo not drawn) |  |  |
| 204 to 206 °C | O=C(O)CC1(CSC2c3ccccc3COc3ccc(/C=C/c4ccc5ccc(Cl)cc5n4)cc32)CC1 (stereo not drawn) |  |  |
| 150 to 152 °C | O=C([O-])CCSC1c2ccccc2COc2ccc(/C=C/c3ccc4c(F)cccc4n3)cc21.[Na+] (stereo not drawn) |  |  |
| 149 to 152 °C | O=C([O-])CC1(CSC2c3ccccc3COc3ccc(/C=C/c4ccc5c(F)cc(F)cc5n4)cc32)CC1.[Na+] (stereo not drawn) |  |  |
| 144 to 148 °C | O=C([O-])CCSC1c2ccccc2CSc2ccc(/C=C/c3ccc4cc(F)c(F)cc4n3)cc21.[Na+] (stereo not drawn) |  |  |
| 182 to 186 °C | O=C(CSC1c2ccccc2COc2ccc(/C=C/c3ccc4cc(F)c(F)cc4n3)cc21)NS(=O)(=O)C(F)(F)F.[Na] (stereo not drawn) |  |  |
| 187 to 192 °C | CS(=O)(=O)NC(=O)CCSC1c2ccccc2COc2ccc(/C=C/c3ccc4cc(F)c(F)cc4n3)cc21.[Na] (stereo not drawn) |  |  |
| 211 to 220 °C | C[C@H](CSC1c2ccccc2CCc2ccc(/C=C/c3ccc4cc(F)c(F)cc4n3)cc21)C(=O)[O-].[Na+] (stereo partly drawn) |  |  |
| 243 to 250 °C | O=C([O-])CCSC1c2ccc(F)cc2COc2ccc(/C=C/c3ccc4cc(F)c(F)cc4n3)cc21.[Na+] (stereo not drawn) |  |  |
| 183 to 186 °C | O=C([O-])c1ccccc1SC1c2ccccc2COc2ccc(/C=C/c3ccc4cc(F)c(F)cc4n3)cc21.[Na+] (stereo not drawn) [Example 8 (b), Sodium 2-{[2-[(E)-2-(6,7-difluoro-2-quinolinyl)ethenyl]-6,11-dihydrodibenz[b,e]oxepin-11-yl]thio}benzoate] |  |  |
| 184 to 188 °C | O=C([O-])c1cccc(SC2c3ccccc3COc3ccc(/C=C/c4ccc5cc(F)c(F)cc5n4)cc32)c1.[Na+] (stereo not drawn) [Example 9 (b), Sodium 3-{[2-[(E)-2-(6,7-difluoro-2-quinolinyl)ethenyl]-6,11-dihydrodibenz[b,e]oxepin-11-yl]thio}benzoate] |  |  |
| 285 to 287 °C (dec.) | O=C([O-])c1ccc(SC2c3ccccc3COc3ccc(/C=C/c4ccc5cc(F)c(F)cc5n4)cc32)cc1.[Na+] (stereo not drawn) [Example 10 (b), Sodium 4-{[2-[(E)-2-(6,7-difluoro-2-quinolinyl)ethenyl]-6,11-dihydrodibenz[b,e]oxepin-11-yl]thio}benzoate] |  |  |
| 209 to 218 °C | CCC(CSC1c2ccccc2COc2ccc(/C=C/c3ccc4cc(F)c(F)cc4n3)cc21)C(=O)[O-].[Na+] (stereo not drawn) [Example 45, Sodium 3-{[2-[(E)-2-(6,7-difluoro-2-quinolinyl)ethenyl]-6,11-dihydrodibenz[b,e]oxepin-11-yl]thio}-2-ethylpropionate] | 0.158 nM |  |
